Legend:
[1] = target: T1, R560T (Homo sapiens, UniProt P13569, R560T); assay: Short-circuit current in FRT cells expressing R560T-CFTR; type: cell-based; conditions: 20 μM forskolin, 5 μM VX-770, 20 μM ASP-11
T1 construct: host or cells: FRT cells
Method: (§1) Short-circuit current was measured on cells cultured on permeable supports (Corning) as described (Haggie, 2017; Phuan, 2018). For FRT cells, the basolateral membrane was permeabilized with 250 μg/mL amphotericin B, and experiments were done using a HCO3^−-buffered system (in mM: 120 NaCl, 5 KCl, 1 MgCl2, 1 CaCl2), 5 Hepes, 25 NaHCO3, 10 glucose, pH 7.4) with a basolateral to apical chloride gradient (60 mM NaCl replaced by sodium gluconate in the apical solution). For human airway epithelial cells, symmetrical HCO3^−-buffered solutions (containing 120 mM NaCl) were used. Cells were equilibrated with 95% O2, 5% CO2 and maintained at 37° C. Hemichambers were connected to a DVC-1000 voltage clamp (World Precision Instruments Inc., Sarasota, Fla.) via Ag/AgCl electrodes and 3 M KCl agar bridges for recording of the short-circuit current.

[2] = target: T2, W1282L-CFTR (Homo sapiens, UniProt P13569, W1282L); assay: Short-circuit current in FRT cells expressing W1282L-CFTR; type: cell-based; conditions: predicted W1282X read-through product
T2 construct: introduced into full-length CFTR cDNA in the vector pcDNA3.1/Zeo (+); expressed in transfected cells; host or cells: FRT cells, pIRESpuro3 vector, puromycin-selected clonal lines
Method: (§2) Compounds that promote read-through of PTCs to generate full-length CFTR have shown limited efficacy in cell culture studies (14-16). Though the read-through drug ataluren (PTC124) was ineffective in clinical trials (17), newer compounds are in development. The ability of ASP-11 to activate chloride current in predicted W1282X-CFTR read-through products was investigated. […] FRT cell lines were generated that stably expressing W1282L-, W1282C- and W1282R-CFTR.
as §1

[3] = target: T3, Q1313X-CFTR (Homo sapiens, UniProt P13569); assay: Short-circuit current in FRT cells expressing Q1313X-CFTR; type: cell-based; conditions: 20 μM ASP-11 with 5 μM VX-770, 20 μM forskolin
T3 construct: several truncated forms of CFTR resulting from premature termination codons (PTCs) located in NBD2; expressed in transfected cells; host or cells: FRT cells, pIRESpuro3 vector, puromycin-selected clonal lines
Method: as §1
(§3) GraphPad Prism software (GraphPad Inc., San Diego, Calif., USA) was used for statistical analysis. EC50 values were determined by non-linear regression to a single-site inhibition model. Statistical significance was determined using unpaired Student's t test, with P<0.05 considered significant.

[4] = target: G551D-CFTR (Homo sapiens, UniProt P13569, G551D); conditions: cited from earlier work
[5] = target: T4, S492F-CFTR (Homo sapiens, UniProt P13569, S492F); assay: Short-circuit current in FRT cells expressing S492F-CFTR; type: cell-based; conditions: 20 μM forskolin, 5 μM VX-770, 20 μM ASP-11, 3 μM VX-809 pretreatment
T4 construct: host or cells: FRT cells
Method: as §1

[6] = target: T5, V520F (Homo sapiens, UniProt P13569, V520F); assay: Short-circuit current in FRT cells expressing V520F-CFTR; type: cell-based; conditions: 20 μM forskolin, 5 μM VX-770, 20 μM ASP-11
T5 construct: host or cells: FRT cells
Method: as §1

[7] = target: T6, L1077P (Homo sapiens, UniProt P13569, L1077P); assay: Short-circuit current in FRT cells expressing L1077P-CFTR; type: cell-based; conditions: 20 μM forskolin, 5 μM VX-770, 20 μM ASP-11
T6 construct: host or cells: FRT cells
Method: as §1

[8] = target: T7, R1162X-CFTR (Homo sapiens, UniProt P13569); assay: Short-circuit current in FRT cells expressing R1162X-CFTR; type: cell-based; conditions: 20 μM forskolin, 5 μM VX-770, 20 μM ASP-11, 3 μM VX-809
T7 construct: the C-terminus PTC mutant R1162X-CFTR (predicted to truncate CFTR just after MSD2); host or cells: FRT cells
Method: as §1

[9] = target: T8, W1282C-CFTR (Homo sapiens, UniProt P13569, W1282C); assay: Short-circuit current in FRT cells expressing W1282C-CFTR; type: cell-based; conditions: predicted W1282X read-through product
T8 construct: introduced into full-length CFTR cDNA in the vector pcDNA3.1/Zeo (+); expressed in transfected cells; host or cells: FRT cells, pIRESpuro3 vector, puromycin-selected clonal lines
Method: as §2, §1

[10] = target: T9, N1303K-CFTR (Homo sapiens, UniProt P13569, N1303K); assay: Short-circuit current in FRT cells expressing N1303K-CFTR; type: cell-based; design: expressed in transfected cells; host or cells: Fischer rat thyroid (FRT) cells
Method: as §1, §3
Co-potentiator efficacy was initially determined by short-circuit current measurements in FRT cells expressing N1303K-CFTR in the presence of a transepithelial chloride gradient and with permeabilization of the basolateral cell membrane such that measured current directly reports CFTR channel activity. […] We previously defined potentiators as either class I compounds, including VX-770 and GLPG1837, or class II compounds such as the arylsulphonamide-pyrrolopyridine and spiro[piperidine-4,1-pyrido[3,4-b]indole] copotentiators that probably bind at distinct sites on CFTR. N1303K-CFTR expressing FRT cells treated with forskolin and GLPG1837 had similar 2i co-potentiator EC50 of 0.8±0.2 μM (FIG. 7B).

[11] = target: T9, N1303K-CFTR; design: expressed in transfected cells; host or cells: Fischer rat thyroid (FRT) cells; conditions: ASP-11 in combination with VX-770; transfected FRT cells; cited from earlier work
[12] = target: I1234del-CFTR (Homo sapiens, UniProt P13569, DEL1234-1239); assay: Short-circuit current in FRT cells expressing I1234del-CFTR; type: cell-based; design: introduced into full-length CFTR cDNA in the vector pcDNA3.1/Zeo (+); expressed in transfected cells; host or cells: FRT cells, pIRESpuro3 vector, puromycin-selected clonal lines; conditions: 20 μM ASP-11 with 5 μM VX-770, 20 μM forskolin
Method: as §1, §3
Compound 2i was also tested on a second minimal function CFTR mutation, I1234del-CFTR, which is generated by the c.3700A>G mutation that results in deletion of 6 amino acids from the CFTR polypeptide (p.Ile1234_Arg1239del-CFTR, hereafter termed I1234del-CFTR) due to introduction of a cryptic splice site in the CFTR transcript.

[13] = target: T10, M1101K (Homo sapiens, UniProt P13569, M1101K); assay: Short-circuit current in FRT cells expressing M1101K-CFTR; type: cell-based; conditions: 20 μM forskolin, 5 μM VX-770, 20 μM ASP-11
T10 construct: host or cells: FRT cells
Method: as §1

[14] = target: T11, R334W (Homo sapiens, UniProt P13569, R334W); assay: Short-circuit current in FRT cells expressing R334W-CFTR; type: cell-based; conditions: 20 μM forskolin, 5 μM VX-770, 20 μM ASP-11
T11 construct: host or cells: FRT cells
Method: as §1

[15] = target: T12, W1282X-CFTR (Homo sapiens, UniProt P13569); conditions: ASP-11 in combination with VX-770; truncated W1282X-CFTR product (CFTR1281); cited from earlier work
T12 construct: CFTR1281 (the truncation product generated by W1282X-CFTR); expressed in transfected cells

T9 sequence (P13569 whole entry N1303K): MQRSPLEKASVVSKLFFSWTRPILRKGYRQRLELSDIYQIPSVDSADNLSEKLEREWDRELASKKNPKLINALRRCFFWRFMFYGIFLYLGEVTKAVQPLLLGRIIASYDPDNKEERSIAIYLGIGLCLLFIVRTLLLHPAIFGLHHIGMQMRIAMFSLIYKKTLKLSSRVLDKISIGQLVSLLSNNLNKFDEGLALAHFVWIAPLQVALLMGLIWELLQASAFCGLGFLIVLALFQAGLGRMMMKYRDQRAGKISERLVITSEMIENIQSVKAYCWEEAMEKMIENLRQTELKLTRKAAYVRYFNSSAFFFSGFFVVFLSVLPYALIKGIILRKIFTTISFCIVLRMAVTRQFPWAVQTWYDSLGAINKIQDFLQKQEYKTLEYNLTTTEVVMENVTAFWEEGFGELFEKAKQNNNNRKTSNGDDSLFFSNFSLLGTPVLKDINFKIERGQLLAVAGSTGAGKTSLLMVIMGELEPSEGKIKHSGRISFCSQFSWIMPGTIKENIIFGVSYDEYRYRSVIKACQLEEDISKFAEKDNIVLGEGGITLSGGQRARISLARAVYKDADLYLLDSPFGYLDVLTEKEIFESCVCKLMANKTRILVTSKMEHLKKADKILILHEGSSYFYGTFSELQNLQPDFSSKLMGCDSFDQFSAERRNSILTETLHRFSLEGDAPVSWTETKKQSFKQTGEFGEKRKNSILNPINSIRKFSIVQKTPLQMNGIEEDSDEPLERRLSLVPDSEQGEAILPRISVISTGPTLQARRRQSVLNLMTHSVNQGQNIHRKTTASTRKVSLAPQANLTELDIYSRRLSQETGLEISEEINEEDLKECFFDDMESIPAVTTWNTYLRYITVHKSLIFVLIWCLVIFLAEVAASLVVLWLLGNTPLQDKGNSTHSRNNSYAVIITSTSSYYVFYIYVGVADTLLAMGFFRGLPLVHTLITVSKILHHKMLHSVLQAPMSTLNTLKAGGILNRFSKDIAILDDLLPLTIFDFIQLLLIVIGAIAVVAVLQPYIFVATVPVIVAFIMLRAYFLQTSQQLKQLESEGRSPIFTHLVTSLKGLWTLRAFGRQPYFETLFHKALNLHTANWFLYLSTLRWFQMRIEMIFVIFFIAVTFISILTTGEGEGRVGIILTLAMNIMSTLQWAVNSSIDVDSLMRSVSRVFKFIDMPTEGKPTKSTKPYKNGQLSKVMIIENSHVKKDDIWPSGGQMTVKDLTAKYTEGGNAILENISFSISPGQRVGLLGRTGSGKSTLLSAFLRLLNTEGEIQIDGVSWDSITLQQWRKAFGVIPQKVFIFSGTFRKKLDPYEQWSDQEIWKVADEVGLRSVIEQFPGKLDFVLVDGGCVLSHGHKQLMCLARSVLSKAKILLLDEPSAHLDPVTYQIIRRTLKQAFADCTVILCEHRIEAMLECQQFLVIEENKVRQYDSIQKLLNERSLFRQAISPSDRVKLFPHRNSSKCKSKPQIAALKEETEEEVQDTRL
G551D-CFTR, sequence (P13569 whole entry G551D): as the sequence (P13569 whole entry N1303K) above, with G551D, K1303N counted along it
T11 sequence (P13569 whole entry R334W): as the sequence (P13569 whole entry N1303K) above, with R334W, K1303N counted along it
T1 sequence (P13569 whole entry R560T): as the sequence (P13569 whole entry N1303K) above, with R560T, K1303N counted along it
T2 sequence (P13569 whole entry W1282L): as the sequence (P13569 whole entry N1303K) above, with W1282L, K1303N counted along it
T5 sequence (P13569 whole entry V520F): as the sequence (P13569 whole entry N1303K) above, with V520F, K1303N counted along it
T4 sequence (P13569 whole entry S492F): as the sequence (P13569 whole entry N1303K) above, with S492F, K1303N counted along it
T10 sequence (P13569 whole entry M1101K): as the sequence (P13569 whole entry N1303K) above, with M1101K, K1303N counted along it
I1234del-CFTR, sequence (P13569 with tags, fused parts or gaps DEL1234-1239): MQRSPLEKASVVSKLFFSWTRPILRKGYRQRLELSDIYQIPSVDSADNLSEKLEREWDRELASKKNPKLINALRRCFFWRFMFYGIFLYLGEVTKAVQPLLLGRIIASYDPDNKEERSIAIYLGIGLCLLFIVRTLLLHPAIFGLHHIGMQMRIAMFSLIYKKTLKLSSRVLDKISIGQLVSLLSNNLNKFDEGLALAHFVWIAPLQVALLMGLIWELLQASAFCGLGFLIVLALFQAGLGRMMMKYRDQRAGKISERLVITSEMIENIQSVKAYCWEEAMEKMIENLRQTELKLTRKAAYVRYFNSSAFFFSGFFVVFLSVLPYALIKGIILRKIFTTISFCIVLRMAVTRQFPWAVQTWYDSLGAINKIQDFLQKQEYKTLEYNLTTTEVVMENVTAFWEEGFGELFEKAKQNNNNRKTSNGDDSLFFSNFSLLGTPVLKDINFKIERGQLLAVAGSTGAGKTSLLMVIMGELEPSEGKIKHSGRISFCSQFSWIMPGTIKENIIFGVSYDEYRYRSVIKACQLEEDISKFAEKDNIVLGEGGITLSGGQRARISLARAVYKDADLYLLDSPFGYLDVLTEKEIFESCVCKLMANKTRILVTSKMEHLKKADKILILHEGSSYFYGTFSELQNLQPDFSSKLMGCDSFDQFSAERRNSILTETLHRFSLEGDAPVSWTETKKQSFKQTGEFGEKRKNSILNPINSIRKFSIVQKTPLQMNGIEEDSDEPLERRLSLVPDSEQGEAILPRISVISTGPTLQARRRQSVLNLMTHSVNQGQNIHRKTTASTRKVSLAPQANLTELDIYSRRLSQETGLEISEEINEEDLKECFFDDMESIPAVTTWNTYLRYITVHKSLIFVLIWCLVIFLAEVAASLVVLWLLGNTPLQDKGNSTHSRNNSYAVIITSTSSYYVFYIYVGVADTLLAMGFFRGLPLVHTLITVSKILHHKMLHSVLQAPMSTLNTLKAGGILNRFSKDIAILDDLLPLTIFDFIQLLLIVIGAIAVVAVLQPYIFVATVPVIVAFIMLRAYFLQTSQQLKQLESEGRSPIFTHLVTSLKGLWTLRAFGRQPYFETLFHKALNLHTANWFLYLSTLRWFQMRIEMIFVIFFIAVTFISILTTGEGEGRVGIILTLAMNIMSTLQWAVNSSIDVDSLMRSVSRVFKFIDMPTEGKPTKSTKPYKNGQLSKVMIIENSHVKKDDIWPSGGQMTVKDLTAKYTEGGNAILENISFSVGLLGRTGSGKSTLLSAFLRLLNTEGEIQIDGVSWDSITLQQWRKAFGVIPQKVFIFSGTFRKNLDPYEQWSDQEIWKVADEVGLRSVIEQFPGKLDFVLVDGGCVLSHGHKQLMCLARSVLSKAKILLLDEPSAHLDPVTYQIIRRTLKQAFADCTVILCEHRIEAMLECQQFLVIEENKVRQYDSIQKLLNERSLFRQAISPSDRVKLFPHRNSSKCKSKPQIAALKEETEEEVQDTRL
T7 sequence (P13569 1-1161 limits assumed): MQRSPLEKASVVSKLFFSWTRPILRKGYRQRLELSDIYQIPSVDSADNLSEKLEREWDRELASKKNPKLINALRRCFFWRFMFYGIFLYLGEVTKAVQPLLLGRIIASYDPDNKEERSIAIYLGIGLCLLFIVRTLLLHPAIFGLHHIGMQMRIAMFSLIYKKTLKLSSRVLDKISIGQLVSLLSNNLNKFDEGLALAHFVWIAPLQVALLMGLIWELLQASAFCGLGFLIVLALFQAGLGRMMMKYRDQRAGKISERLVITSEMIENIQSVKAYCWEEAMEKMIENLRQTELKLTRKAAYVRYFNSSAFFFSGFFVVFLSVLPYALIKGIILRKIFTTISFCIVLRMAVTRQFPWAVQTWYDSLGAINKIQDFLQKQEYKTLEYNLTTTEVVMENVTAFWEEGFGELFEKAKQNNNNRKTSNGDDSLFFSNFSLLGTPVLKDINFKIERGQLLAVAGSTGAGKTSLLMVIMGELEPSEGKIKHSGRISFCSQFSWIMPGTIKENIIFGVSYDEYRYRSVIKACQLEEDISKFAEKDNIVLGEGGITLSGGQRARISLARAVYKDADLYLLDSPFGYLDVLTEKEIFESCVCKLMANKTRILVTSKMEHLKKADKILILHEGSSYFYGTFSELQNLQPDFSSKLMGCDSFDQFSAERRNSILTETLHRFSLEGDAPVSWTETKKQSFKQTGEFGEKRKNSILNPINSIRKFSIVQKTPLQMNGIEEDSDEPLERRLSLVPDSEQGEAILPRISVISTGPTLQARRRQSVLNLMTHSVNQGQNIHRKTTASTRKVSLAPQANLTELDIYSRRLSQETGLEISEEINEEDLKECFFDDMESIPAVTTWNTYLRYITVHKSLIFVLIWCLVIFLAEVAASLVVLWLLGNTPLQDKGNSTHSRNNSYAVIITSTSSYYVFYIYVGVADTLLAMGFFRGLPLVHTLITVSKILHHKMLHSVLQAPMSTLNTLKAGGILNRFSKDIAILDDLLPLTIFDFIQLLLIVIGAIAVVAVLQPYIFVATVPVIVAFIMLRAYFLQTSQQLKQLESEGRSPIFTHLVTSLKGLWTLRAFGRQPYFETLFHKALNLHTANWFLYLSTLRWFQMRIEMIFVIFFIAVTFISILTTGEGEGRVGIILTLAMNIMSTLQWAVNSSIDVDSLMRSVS
T6 sequence (P13569 whole entry L1077P): as the sequence (P13569 whole entry N1303K) above, with L1077P, K1303N counted along it
T8 sequence (P13569 whole entry W1282C): as the sequence (P13569 whole entry N1303K) above, with W1282C, K1303N counted along it

In the case of `CCCCn1cc(S(=O)(=O)Nc2ccc(CC)cc2)c2cccnc21` [ASP-11, 1-butyl-N-(4-ethylphenyl)-1H-pyrrolo[2,3-b]pyridine-3-sulfonamide], the “short-circuit current response” value [1] is reported as “absence of response”, the “short-circuit current effect additional to forskolin” value [2] is reported as “little additional” and the “increase of chloride current compared to VX-770” value [3] is reported as 3-9 fold. The “improvement of chloride channel function compared with VX-770 alone” value ([4]; ASP-11 in combination with VX-770) was about 50%, the “activation of G551D-CFTR” value ([4]; previously shown) was “activates G551D-CFTR” and the “short-circuit current response” value [5] was “no response”. For the same compound, the “short-circuit current response” value [6] was “absence of response”, the “short-circuit current response” value [7] was “absence of response” and the “short-circuit current response” value [8] was “did not respond”. The “short-circuit current effect additional to forskolin” value [9] was “significant further effects”, the “short-circuit current response when added after VX-770” value ([10]; 20 μM forskolin, 5 μM VX-770, 20 μM test potentiator) was “synergy” and the “activation by two Class II potentiators added together” value ([10]; W1282Xpot-C01 and ASP-11, 20 μM each, no Class I potentiator) was “little activation”. For the same compound, the “increase of chloride current compared with VX-770 alone” value [11] was about 8 fold, the “increase of chloride current compared to VX-770” value [12] was 3-9 fold and the “short-circuit current response” value [13] was “absence of response”. The “short-circuit current response” value [14] was “absence of response” and the “increase of chloride current compared with VX-770 alone” value [15] was about 8 fold.
